From US12448369B2 (Edgewise Therapeutics, Inc., priority 2023, dated 2025)
Where two headings read alike, the source gives them in different places.

How the values were obtained:
[1] = tested on: Porcine atria myofibrils (atrial myosin ATPase); experiment: Myofibril ATPase assay, porcine atria myofibrils; type: biochemical; settings: porcine atria myofibrils
In short: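 Porcine atrial myofibrils were tested in a PK/LDH-coupled system where ADP from myosin ATPase drives NADH oxidation. Absorbance at 340 nm was read every 1.5-2 min for 75 min and slopes were normalized to vehicle wells. A 4-parameter logistic fit gave Y75 (25% inhibition) or Y125 (activation) concentrations.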

[2] = target: T1, Porcine ventricle myofibrils (ventricular myosin ATPase) (Sus scrofa, UniProt P79293); experiment: Myofibril ATPase assay, porcine ventricle myofibrils; type: biochemical, porcine (Yucatan minipigs); settings: porcine ventricle myofibrils
T1 construct: Myofibrils from porcine cardiac muscle was isolated from the left ventricle of Yucatan minipigs; tissue Exemplar Genetics; host or cells: left ventricle of Yucatan minipigs, myofibrils prepared in house
T1 sequence (P79293 whole entry): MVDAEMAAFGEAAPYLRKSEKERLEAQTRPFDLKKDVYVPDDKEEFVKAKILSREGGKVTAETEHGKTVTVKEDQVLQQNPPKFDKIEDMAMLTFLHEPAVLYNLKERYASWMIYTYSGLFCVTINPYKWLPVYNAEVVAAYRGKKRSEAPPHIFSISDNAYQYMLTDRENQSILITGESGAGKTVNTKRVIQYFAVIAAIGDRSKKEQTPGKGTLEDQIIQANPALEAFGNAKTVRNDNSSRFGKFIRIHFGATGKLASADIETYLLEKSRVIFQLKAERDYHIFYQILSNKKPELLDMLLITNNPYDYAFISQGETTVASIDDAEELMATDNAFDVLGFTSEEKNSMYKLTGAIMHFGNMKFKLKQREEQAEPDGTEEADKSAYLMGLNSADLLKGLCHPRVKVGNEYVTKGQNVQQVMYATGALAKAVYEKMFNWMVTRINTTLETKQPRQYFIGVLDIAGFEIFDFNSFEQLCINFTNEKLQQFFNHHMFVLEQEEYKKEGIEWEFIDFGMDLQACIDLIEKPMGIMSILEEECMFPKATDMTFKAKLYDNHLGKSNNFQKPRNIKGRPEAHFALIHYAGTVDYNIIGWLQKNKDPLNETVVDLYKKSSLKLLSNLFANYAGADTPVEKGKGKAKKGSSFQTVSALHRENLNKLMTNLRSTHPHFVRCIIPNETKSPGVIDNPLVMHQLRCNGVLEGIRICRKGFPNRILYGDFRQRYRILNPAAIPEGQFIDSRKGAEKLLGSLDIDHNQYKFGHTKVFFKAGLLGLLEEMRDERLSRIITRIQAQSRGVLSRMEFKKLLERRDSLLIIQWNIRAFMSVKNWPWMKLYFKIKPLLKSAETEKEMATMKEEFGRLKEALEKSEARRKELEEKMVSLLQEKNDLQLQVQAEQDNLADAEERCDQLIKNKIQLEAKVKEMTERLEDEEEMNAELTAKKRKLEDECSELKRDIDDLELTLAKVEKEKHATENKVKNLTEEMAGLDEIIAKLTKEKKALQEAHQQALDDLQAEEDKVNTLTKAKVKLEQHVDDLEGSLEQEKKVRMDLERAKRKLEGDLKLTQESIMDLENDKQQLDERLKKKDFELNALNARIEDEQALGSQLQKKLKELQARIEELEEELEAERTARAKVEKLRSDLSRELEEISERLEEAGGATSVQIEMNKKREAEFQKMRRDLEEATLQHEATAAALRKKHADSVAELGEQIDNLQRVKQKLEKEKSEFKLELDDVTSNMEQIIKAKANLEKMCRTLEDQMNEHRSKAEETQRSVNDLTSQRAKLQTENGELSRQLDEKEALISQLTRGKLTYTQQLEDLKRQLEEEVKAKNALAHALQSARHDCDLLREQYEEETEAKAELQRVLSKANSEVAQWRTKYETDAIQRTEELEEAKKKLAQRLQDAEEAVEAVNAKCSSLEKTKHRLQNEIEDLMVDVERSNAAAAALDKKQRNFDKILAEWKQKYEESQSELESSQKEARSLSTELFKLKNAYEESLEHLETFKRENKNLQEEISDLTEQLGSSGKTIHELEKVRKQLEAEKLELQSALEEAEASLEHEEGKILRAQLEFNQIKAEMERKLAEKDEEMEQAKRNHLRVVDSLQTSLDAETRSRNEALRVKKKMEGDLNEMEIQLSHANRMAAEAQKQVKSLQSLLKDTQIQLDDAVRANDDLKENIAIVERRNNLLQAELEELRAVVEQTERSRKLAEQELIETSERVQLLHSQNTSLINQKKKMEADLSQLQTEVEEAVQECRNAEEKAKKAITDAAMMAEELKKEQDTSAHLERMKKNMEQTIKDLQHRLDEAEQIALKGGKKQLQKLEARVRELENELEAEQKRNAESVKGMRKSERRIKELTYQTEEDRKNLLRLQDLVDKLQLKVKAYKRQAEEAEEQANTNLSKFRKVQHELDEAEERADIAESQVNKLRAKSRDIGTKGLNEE
In short: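 Read-out: A340 kinetic, NADH consumption coupled to ADP via PK-LDH, 75 min. Yucatan minipig LV myofibrils, pCa buffer (PIPES/CaCl2/EGTA, pH 7.0). Linear-regression slope (mAU/min), vehicle = 100%, 4PL fit; Y75 or Y125 reported.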

SD rats = experiment: Echocardiography of systolic cardiac performance (HR, FS, LV volumes, SWT) after a single oral dose; type: in vivo; settings: Rattus norvegicus, single dose 10 mg/kg PO, ~2 hrs post-dosing, isoflurane-anesthetized
Protocol: Example 2. Echocardiogram Data
Experiments were performed to evaluate the in vivo ability of the compounds of the disclosure to modulate systolic cardiac performance. Non-invasively echocardiography was used to assess cardiac indicators in isoflurane-anesthetized SD rats. A set of conscious rats were treated with either vehicle control (0 mg/kg PO; n=78) or a single dose of a test compound (10 mg/kg PO, n=2 to 6/compound) via oral gavage. Cardiac function/geometry were recorded at two separate time-points/days: once prior to dosing (e.g., at baseline, day −2) and at ˜2 hrs post-dosing (day 0). In these experiments, heart rate (HR), echocardiography-derived indices of left-ventricular systolic performance, as well as dimensions/volumes were measured using a high-frequency transducer and parasternal long-axis transthoracic views (Vevo3100, VisualSonic). LV fractional shortening (FS), an index of systolic function, was defined as the end-diastole normalized change in internal dimensions divided by the difference in diameter (LVid) of the left ventricle between end-systole (LVids) and end-diastole (LVidd) (e.g., FS=100·[LVidd−LVids]/LVidd). LV volumes were derived using the Teichholz formula (LVV=[7·LVid^3]/[2.4+LVid]). In addition, a systolic wall-thickening index (SWT) was also evaluated. SWT is defined as the relative ratio (end-diastole normalized) of left-ventricular (anterior and posterior) wall-thickness change during systole; e.g., SWT={[(anterior LV wall thickness in systole−anterior LV wall thickness in diastole)]+[(posterior LV wall thickness in systole−posterior LV wall thickness in diastole)]}/{2*diastolic thickness}. In all cases, blood samples were taken (via either tail-vein micro-sampling or cardiac-puncture) at the time of each echocardiographic examination in order to establish pharmacokinetic (PK)/pharmacodynamics (PD) relationships.

[3] = tested on: Rabbit Psoas myofibrils (skeletal myosin ATPase); experiment: Myofibril ATPase assay, rabbit psoas (skeletal) myofibrils; type: biochemical; settings: rabbit psoas myofibrils
In short: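 ATPase activity of Triton-washed myofibrils was measured by PK/LDH coupling, following NADH loss at 340 nm every 1.5–2 min for 75 min in PIPES/Ca/EGTA buffer at pH 7.0. Slopes, normalized to vehicle (100%), were fitted to a 4-parameter logistic model. Values are Y75 (25% inhibition) or Y125 (activators).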

[4] = Y75 value (75% activity relative to no compound)
[5] = EDV change vs vehicle, read-out: EDV % vs. VEH
[6] = LV fractional shortening change vs vehicle, read-out: FS % vs. VEH
[7] = SWT change vs vehicle, read-out: SWT % vs. VEH
[8] = heart rate change vs vehicle, read-out: HR % vs. VEH

Q: Cc1nccc2[nH]c(=O)c(CC(=O)N[C@@H](C)c3ccc(C#N)cc3F)c(C)c12 (single isomer, unassigned) [compound 256] was tested. Which “Atrial EC25” value [1, 4] did it give?
A: 0.08 µM

Q: What about the “Ventricular EC25” value ([2]; Y75 value) of the same compound?
A: 0.19 µM

Q: What about the change in vivo at 10 mg/kg (SD rats; [5]) of the same compound?
A: 1 to 20%

Q: And the change in vivo at 10 mg/kg (SD rats; [6])?
A: 1 to 20%

Q: What about the change in vivo at 10 mg/kg (SD rats; [7]) of the same compound?
A: 1 to 20%

Q: What about the change in vivo at 10 mg/kg (SD rats; [8]) of the same compound?
A: 1 to 10%

Q: And the “Skeletal EC25” value ([3]; Y75 value)?
A: 0.02 µM

Q: With Cc1c(CC(=O)N[C@@H](C)c2ccc(F)cc2F)c(=O)[nH]c2ccc(F)c(C#N)c12 [compound 83] as the compound, how does the “Atrial EC25” value ([1]; Y75 value (no ‡ mark)) read?
A: 0.04 µM

Q: What about the “Ventricular EC25” value ([2]; Y75 value (no ‡ mark)) of the same compound?
A: 0.10 µM

Q: What about the change in vivo at 10 mg/kg (SD rats; [5]) of the same compound?
A: 1 to 20%

Q: And the change in vivo at 10 mg/kg (SD rats; [6])?
A: 11 to 20%

Q: What about the change in vivo at 10 mg/kg (SD rats; [7]) of the same compound?
A: 11 to 20%

Q: What about the change in vivo at 10 mg/kg (SD rats; [8]) of the same compound?
A: 1 to 10%

Q: What about the “Skeletal EC25” value ([3]; Y75 value (no ‡ mark)) of the same compound?
A: 0.01 µM

Q: With C[C@@H](NC(=O)Cc1cc2c(F)c(F)ccc2[nH]c1=O)c1ncc(C#N)cn1 (single isomer, unassigned) [compound 2071] as the compound, how does the “Atrial EC25” value ([1]; Y75 value (no ‡ mark)) read?
A: 1.07 µM

Q: What about the “Ventricular EC25” value ([2]; Y75 value (no ‡ mark)) of the same compound?
A: 2.62 µM

Q: And the change in vivo at 10 mg/kg (SD rats; [5])?
A: 1 to 20%

Q: What about the change in vivo at 10 mg/kg (SD rats; [6]) of the same compound?
A: 1 to 20%

Q: What about the change in vivo at 10 mg/kg (SD rats; [7]) of the same compound?
A: 11 to 20%

Q: What about the change in vivo at 10 mg/kg (SD rats; [8]) of the same compound?
A: 1 to 20%

Q: And the “Skeletal EC25” value ([3]; Y75 value (no ‡ mark))?
A: 2.93 µM

Q: How did the “Atrial EC25” value ([1]; Y75 value (no ‡ mark)) turn out when Cc1c(CC(=O)N[C@@H](C)c2ncc(C#N)cc2F)c(=O)[nH]c2ccc(F)c(F)c12 [compound 42] was run?
A: 0.08 µM

Q: What about the “Ventricular EC25” value ([2]; Y75 value (no ‡ mark)) of the same compound?
A: 0.04 µM

Q: And the change in vivo at 10 mg/kg (SD rats; [5])?
A: 1 to 10%

Q: And the change in vivo at 10 mg/kg (SD rats; [6])?
A: 21 to 40%

Q: And the change in vivo at 10 mg/kg (SD rats; [7])?
A: ≥ 21%

Q: And the change in vivo at 10 mg/kg (SD rats; [8])?
A: 0%

Q: And the “Skeletal EC25” value ([3]; Y75 value (no ‡ mark))?
A: 0.01 µM

Q: C[C@H](NC(=O)Cc1cc2c(F)c(F)ccc2[nH]c1=O)c1ncc(C#N)cc1F [compound 36] was tested. Which “Atrial EC25” value ([1]; Y75 value (no ‡ mark)) did it give?
A: 0.02 µM

Q: What about the “Ventricular EC25” value ([2]; Y75 value (no ‡ mark)) of the same compound?
A: 0.05 µM

Q: And the change in vivo at 10 mg/kg (SD rats; [5])?
A: 1 to 10%

Q: And the change in vivo at 10 mg/kg (SD rats; [6])?
A: 41 to 60%

Q: What about the change in vivo at 10 mg/kg (SD rats; [7]) of the same compound?
A: 21 to 40%

Q: And the change in vivo at 10 mg/kg (SD rats; [8])?
A: 11 to 20%

Q: What about the “Skeletal EC25” value ([3]; Y75 value (no ‡ mark)) of the same compound?
A: 0.01 µM

Q: With C[C@@H](NC(=O)Cc1cc2c(F)c(F)ccc2[nH]c1=O)c1ncc(C#N)cc1F [compound 35] as the compound, how does the “Atrial EC25” value ([1]; Y75 value (no ‡ mark)) read?
A: 0.08 µM

Q: And the “Ventricular EC25” value ([2]; Y75 value (no ‡ mark))?
A: 0.15 µM

Q: What about the change in vivo at 10 mg/kg (SD rats; [5]) of the same compound?
A: 11 to 20%

Q: What about the change in vivo at 10 mg/kg (SD rats; [6]) of the same compound?
A: 1 to 20%

Q: And the change in vivo at 10 mg/kg (SD rats; [7])?
A: 0%

Q: What about the change in vivo at 10 mg/kg (SD rats; [8]) of the same compound?
A: 1 to 10%

Q: What about the “Skeletal EC25” value ([3]; Y75 value (no ‡ mark)) of the same compound?
A: 0.09 µM

Q: What does the source list for Cc1c(CC(=O)N[C@@H](C)c2ccc(F)cc2F)c(=O)[nH]c2ccnc(C#N)c12 [compound 355, 2-(5-cyano-4-methyl-2-oxo-1H-1,6-naphthyridin-3-yl)-N-[(1S)-1-(2,4-difluorophenyl)ethyl]acetamide]?
A: Atrial EC25 [1, 4]: 0.07 µM; Ventricular EC25 ([2]; Y75 value): 0.14 µM; change in vivo at 10 mg/kg (SD rats; [5]): 1 to 10%; change in vivo at 10 mg/kg (SD rats; [6]): 11 to 20%; change in vivo at 10 mg/kg (SD rats; [7]): 1 to 10%; change in vivo at 10 mg/kg (SD rats; [8]): 1 to 10%; Skeletal EC25 ([3]; Y75 value): 0.01 µM

Q: Cc1c(CC(=O)N[C@@H](C)c2ncc(C#N)cn2)c(=O)[nH]c2ccc(F)c(F)c12 [compound 1124, (S)—N-(1-(5-cyanopyrimidin-2-yl)ethyl)-2-(5,6-difluoro-4-methyl-2-oxo-1,2-dihydroquinolin-3-yl)acetamide] was tested. Which “Atrial EC25” value ([1]; Y75 value (no ‡ mark)) did it give?
A: 0.07 µM

Q: And the “Ventricular EC25” value ([2]; Y75 value (no ‡ mark))?
A: 0.34 µM

Q: What about the change in vivo at 10 mg/kg (SD rats; [5]) of the same compound?
A: 1 to 10%

Q: And the change in vivo at 10 mg/kg (SD rats; [6])?
A: 21 to 40%

Q: What about the change in vivo at 10 mg/kg (SD rats; [7]) of the same compound?
A: 1 to 20%

Q: And the change in vivo at 10 mg/kg (SD rats; [8])?
A: 1 to 10%

Q: What about the “Skeletal EC25” value ([3]; Y75 value (no ‡ mark)) of the same compound?
A: 0.14 µM

Q: For Cc1c(CC(=O)N[C@H](C)c2ncc(C#N)cc2F)c(=O)[nH]c2ccc(F)c(C3CC3)c12 [compound 27], which “Atrial EC25” value ([1]; Y75 value (no ‡ mark)) is on record?
A: 0.23 µM

Q: And the “Ventricular EC25” value ([2]; Y75 value (no ‡ mark))?
A: 0.24 µM

Q: And the change in vivo at 10 mg/kg (SD rats; [5])?
A: 11 to 20%

Q: What about the change in vivo at 10 mg/kg (SD rats; [6]) of the same compound?
A: 11 to 20%

Q: What about the change in vivo at 10 mg/kg (SD rats; [7]) of the same compound?
A: ≥ 21%

Q: And the change in vivo at 10 mg/kg (SD rats; [8])?
A: 1 to 20%

Q: And the “Skeletal EC25” value ([3]; Y75 value (no ‡ mark))?
A: 0.14 µM

Q: Which results are given for Cc1c(CC(=O)N[C@@H](C)c2cnc(C#N)cn2)c(=O)[nH]c2ccc(F)c(F)c12 [compound 1146, (S)—N-(1-(5-cyanopyrazin-2-yl)ethyl)-2-(5,6-difluoro-4-methyl-2-oxo-1,2-dihydroquinolin-3-yl)acetamide]?
A: Atrial EC25 ([1]; Y75 value (no ‡ mark)): 0.14 µM; Ventricular EC25 ([2]; Y75 value (no ‡ mark)): 0.19 µM; change in vivo at 10 mg/kg (SD rats; [5]): 1 to 20%; change in vivo at 10 mg/kg (SD rats; [6]): 21 to 40%; change in vivo at 10 mg/kg (SD rats; [7]): 21 to 40%; change in vivo at 10 mg/kg (SD rats; [8]): 1 to 10%; Skeletal EC25 ([3]; Y75 value (no ‡ mark)): 0.21 µM

Q: Cc1c(CC(=O)N[C@H](C)c2ncc(C#N)cc2F)c(=O)[nH]c2ccc(F)cc12 [compound 1106] was tested. Which “Atrial EC25” value ([1]; Y75 value (no ‡ mark)) did it give?
A: 0.54 µM

Q: What about the “Ventricular EC25” value ([2]; Y75 value (no ‡ mark)) of the same compound?
A: 0.49 µM

Q: What about the change in vivo at 10 mg/kg (SD rats; [5]) of the same compound?
A: 1 to 10%

Q: What about the change in vivo at 10 mg/kg (SD rats; [6]) of the same compound?
A: 21 to 40%

Q: What about the change in vivo at 10 mg/kg (SD rats; [7]) of the same compound?
A: 21 to 40%

Q: What about the change in vivo at 10 mg/kg (SD rats; [8]) of the same compound?
A: 1 to 10%

Q: And the “Skeletal EC25” value ([3]; Y75 value (no ‡ mark))?
A: 0.37 µM

Q: For Cc1c(CC(=O)N[C@H](C)c2ncc(C#N)cn2)c(=O)[nH]c2ccc(F)c(F)c12 [compound 1123, (R)—N-(1-(5-cyanopyrimidin-2-yl)ethyl)-2-(5,6-difluoro-4-methyl-2-oxo-1,2-dihydroquinolin-3-yl)acetamide], which “Atrial EC25” value ([1]; Y75 value (no ‡ mark)) is on record?
A: 0.48 µM

Q: And the “Ventricular EC25” value ([2]; Y75 value (no ‡ mark))?
A: 1.37 µM

Q: What about the change in vivo at 10 mg/kg (SD rats; [5]) of the same compound?
A: 21 to 40%

Q: And the change in vivo at 10 mg/kg (SD rats; [6])?
A: 21 to 40%

Q: And the change in vivo at 10 mg/kg (SD rats; [7])?
A: 41 to 60%

Q: What about the change in vivo at 10 mg/kg (SD rats; [8]) of the same compound?
A: 1 to 10%

Q: And the “Skeletal EC25” value ([3]; Y75 value (no ‡ mark))?
A: 0.58 µM
